Results from patent US7737121B2, “Insulin secretion by anthocyanins and anthocyanidins” (Board of Trustees of Michigan State University, priority 2004, dated 2010).

Assays:
[1] = test system: INS-1 832/13 cells; assay: Insulin secretion by INS-1 832/13 pancreatic beta cells (static secretion, insulin by RIA, normalized to cellular protein); type: cell-based, rodent; settings: for increase in insulin secretion: increase over untreated cells; for fold increase in insulin secretion: versus untreated cells
Procedure: Insulin Secretion Studies. INS-1 832/13 cells (kindly provided by Dr Christopher Newgard, Duke University, NC) (18) were routinely cultured in 5% CO2/air at 37° C. in RPMI-1640 medium containing 11.1 mM glucose and supplemented with 10% FBS (Fetal Bovine Serum), 10 mM HEPES, 100 U/ml penicillin, 100 μg/ml streptomycin, 4 mM Glutamine, 1 mM sodium pyruvate, and 50 μM 2-mercaptoethanol. Cells were passed weekly after trypsin-EDTA detachment. For static secretion studies, cells were plated on 24 well plates at a density of 0.64×10^6 cells per well and grown for 24 h. The cells were then cultured for an additional 24 h in RPMI-1640 containing 4 mM glucose and the supplements described above. Cells were then incubated twice for 30 min in Krebs Ringer Bicarbonate buffer (KRBB) containing 4 mM glucose and 0.1% BSA. Cells were rapidly washed with KRBB and incubated for 60 min KRBB containing 4 or 10 mM glucose with or without the indicated anthocyanins or anthocyanidins. The medium was then removed for determining insulin release. The cells were then washed twice with PBS and dissolved in 1 M NaOH. Cellular protein concentration was then determined by Lowry assay. Anthocyanins and anthocyanidins were dissolved in DMSO to obtain desired concentrations. Final concentration of DMSO was 0.1%. The insulin secreted into the medium by the cells was determined by radioimmuno assay and normalized to total cellular protein.
Radio Immuno Assay (RIA). The Kit for RIA was purchased from LINCO Research Inc. (St Charles, Mo.), and the assay was conducted according to the manufacturer's directions. Briefly, 0.1-10 ng of insulin standards (100 μl) were added to 12×75 mm test tubes. Similarly, samples (25 μl) from the insulin secretion studies were also added to the test tubes. To this, an aliquot (75 μl) of assay buffer was added. The ^125I labeled insulin (100 μl) was then added to each test tube. […] The tubes were then centrifuged and the radioactivity was measured using a gamma counter.
Lowry protein Assay. The amount of protein in the assay wells was determined by Lowry method (Francis, J. A., et al., Helv. Chim. Acta 87 317-326 (2004)). The Lowry assay solution was prepared by combining the Lowry solution, CuSO4.5H2O (1%), and sodium tartarate (1%). Briefly, the protein sample (100 μl) and Lowry mixture (1 mL) were mixed in a test tube (12×75). The Folin-Ciolatues reagent (100 μl) was added to these tubes, mixed, and incubated for 30 min at room temperature. The optical density of resulting solutions was read at 700 nm using a UV spectrophotometer.

[2] = mice; cited from earlier work
[3] = 4 mM glucose, 50 μg/mL compound
[4] = 10 mM glucose, 50 μg/mL compound

SMILES	insulin secreted (dose dependent assay) ([1]; 4 mM glucose, 5 μg/mL compound, untreated cells 33)	effect on insulin secretion, result in words [1, 3]	increase in insulin secretion ([1]; 4 mM glucose, 50 μg/mL compound, 60 min)	fold increase in insulin secretion [1, 3] [fold]	insulin secretion (dose dependent assay), result in words ([1]; 4 mM glucose, 10, 50, 100 and 250 μg/mL compound)	effect on insulin secretion, result in words [1, 4]	effect on insulin secretion, result in words ([1]; 4 and 10 mM glucose)	high fat diet induced obesity [2]	insulin secreted ([1]; 4 mM glucose, 50 μg/mL compound, total secreted by treated cells)	fold increase in insulin secretion [1, 4] [fold]	effect on insulin secretion, result in words ([1]; 4 and 10 mM glucose, listed as delphinidin-3-glucoside)	increase in insulin secretion [1, 4]
OC[C@H]1O[C@@H](Oc2cc3c(O)cc(O)cc3[o+]c2-c2ccc(O)c(O)c2)[C@H](O)[C@@H](O)[C@@H]1O [Compound 1, cyanidin-3-glucoside]	46 ng of insulin per mg protein	less active than delphinidin-3-glucoside	9 ng/mg of protein	1.3	no significant difference	more active	most effective insulin secretagogues	reduced				
OC[C@H]1O[C@@H](Oc2cc3c(O)cc(O)cc3[o+]c2-c2cc(O)c(O)c(O)c2)[C@H](O)[C@@H](O)[C@@H]1O [Compound 2, delphinidin-3-glucoside]				1.8			most effective insulin secretagogues		49 ng/mg of protein	1.4	significantly induced the insulin secretion	
OC[C@H]1O[C@@H](Oc2cc3c(O)cc(O)cc3[o+]c2-c2ccc(O)c(O)c2)[C@H](O)[C@@H](O)[C@H]1O [Compound 3, cyanidin-3-galactoside]		did not increase the insulin secretion					significant increase in insulin secretion			1.2		17 ng/mg of protein
OCC1OC(Oc2cc3c(O)cc(O)cc3[o+]c2-c2ccc(O)cc2)C(O)C(O)C1O (stereo not shown) [Compound 4, pelargonidin-3-galactoside]		did not increase the insulin secretion					did not induce insulin secretion					
